# From ChEMBL document CHEMBL1201862, “PubChem BioAssay data set” (2004)
#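 In this assay, cells in 96-well plates receive the compound at five concentrations for 48 hours. Endpoints are linearly interpolated between the surrounding concentrations. The concentration for 50% growth inhibition is given as GI50.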 Active and inactive are the calls of the source. Cut-off read from the data, not from the text of the source: active = GI50 up to about 1.1 µM and inactive = higher.
# How the values were obtained:
# Assay in all cases: inhibition of tumour cell growth, NCI panel, 48 h
# [1] = test system: IGROV-1
# [2] = test system: HT-29
# [3] = test system: OVCAR-8
# [4] = test system: UO-31
# [5] = test system: COLO 205
# [6] = test system: OVCAR-3
# [7] = test system: U-251
# [8] = test system: CAKI-1
# [9] = test system: Hs-578T
# [10] = test system: MCF7
# [11] = test system: NCI-H522
# [12] = test system: EKVX
# [13] = test system: NCI-H460
# [14] = test system: RXF 393
# [15] = test system: HOP-62
# [16] = test system: OVCAR-4
# [17] = test system: CCRF-CEM
# [18] = test system: KM12
Compound,GI50 [1],GI50 [2],GI50 [3],GI50 [4],GI50 [5],GI50 [6],GI50 [7],GI50 [8],GI50 [9],GI50 [10],GI50 [11],GI50 [12],GI50 [13],GI50 [14],GI50 [15],GI50 [16],GI50 [17],GI50 [18]
O=C1c2ccccc2-c2nnc(-c3ccc(Cl)cc3)cc21,> 10 µM (inactive),> 10 µM (inactive),> 10 µM (inactive),> 10 µM (inactive),> 10 µM (inactive),> 10 µM (inactive),> 10 µM (inactive),> 10 µM (inactive),> 10 µM (inactive),> 10 µM (inactive),> 10 µM (inactive),> 10 µM (inactive),> 10 µM (inactive),> 10 µM (inactive),> 10 µM (inactive),> 10 µM (inactive),> 10 µM (inactive),> 10 µM (inactive)
Cn1c2ccccc2n2c(=O)c3cc([N+](=O)[O-])ccc3c(C#N)c12,> 100 µM (inactive),> 100 µM (inactive),> 100 µM (inactive),> 100 µM (inactive),> 100 µM (inactive),> 100 µM (inactive),> 100 µM (inactive),> 10 µM (inactive),> 100 µM (inactive),> 100 µM (inactive),> 100 µM (inactive),> 100 µM (inactive),> 100 µM (inactive),> 100 µM (inactive),27.5 µM (inactive),65.6 µM (inactive),> 100 µM (inactive),> 100 µM (inactive)
COc1ccc(OC)c(C2CCc3nc4nc(N)nc(N)c4cc3C2)c1 (stereo not given),10.2 µM (inactive),3.01 µM (inactive),2.47 µM (inactive),3.25 µM (inactive),3.32 µM (inactive),1.82 µM (inactive),1.76 µM (inactive),20.8 µM (inactive),3.75 µM (inactive),1.89 µM (inactive),2.19 µM (inactive),13.4 µM (inactive),4.66 µM (inactive),2.69 µM (inactive),2.13 µM (inactive),2.07 µM (inactive),2.96 µM (inactive),2.29 µM (inactive)
O=C1/C(=C\c2ccccc2)c2ccccc2N1Cc1ccccc1,10.7 µM (inactive),6.15 µM (inactive),11.6 µM (inactive),10 µM (inactive),16.6 µM (inactive),3.99 µM (inactive),8.69 µM (inactive),6.67 µM (inactive),5.14 µM (inactive),3.45 µM (inactive),10.1 µM (inactive),12.5 µM (inactive),12.8 µM (inactive),10.4 µM (inactive),13.1 µM (inactive),12.6 µM (inactive),3.15 µM (inactive),6.04 µM (inactive)
[N-]=[N+]=NC[C@H]1OCO[C@H](CN=[N+]=[N-])[C@H]2OCCOCCOc3ccccc3OCCOCCO[C@@H]21,> 100 µM (inactive),> 100 µM (inactive),> 100 µM (inactive),10.1 µM (inactive),> 100 µM (inactive),> 100 µM (inactive),> 100 µM (inactive),> 100 µM (inactive),> 100 µM (inactive),> 100 µM (inactive),> 100 µM (inactive),> 100 µM (inactive),> 100 µM (inactive),> 100 µM (inactive),> 100 µM (inactive),> 100 µM (inactive),> 100 µM (inactive),> 100 µM (inactive)
NNC(=O)c1c(SCc2ccccc2)nc2c3ccccc3ccn12,14.4 µM (inactive),16.5 µM (inactive),30.5 µM (inactive),10 µM (inactive),23.9 µM (inactive),2.92 µM (inactive),17.7 µM (inactive),15 µM (inactive),80.4 µM (inactive),24.2 µM (inactive),15.5 µM (inactive),19.5 µM (inactive),14.8 µM (inactive),15.2 µM (inactive),10.2 µM (inactive),14.5 µM (inactive),2.92 µM (inactive),22.6 µM (inactive)
CO[C@H]1C=CO[C@@]2(C)Oc3c(C)c(O)c4c(O)c(c(CN5CCN(C)CC5)c(O)c4c3C2=O)NC(=O)/C(C)=C\C=C[C@H](C)[C@H](O)C(C)[C@@H](O)C(C)[C@H](OC(C)=O)[C@@H]1C (stereo not given in full),33.8 µM (inactive),21.6 µM (inactive),20 µM (inactive),33.7 µM (inactive),5.7 µM (inactive),2.88 µM (inactive),32.7 µM (inactive),> 77.1 µM (inactive),> 100 µM (inactive),11.1 µM (inactive),18.3 µM (inactive),68.5 µM (inactive),39.6 µM (inactive),48.3 µM (inactive),17.7 µM (inactive),27.5 µM (inactive),4.39 µM (inactive),45.6 µM (inactive)
CCOCC(=O)N[C@H]1CCc2cc(OC(=O)COCC)c(OC)c(OC)c2-c2ccc(SC)c(=O)cc21,0.0324 µM (active),0.0177 µM (active),0.0307 µM (active),0.914 µM (active),0.0219 µM (active),0.01 µM (active),0.0275 µM (active),0.15 µM (active),0.0122 µM (active),0.00686 µM (active),0.0151 µM (active),0.0571 µM (active),0.0327 µM (active),0.021 µM (active),0.0533 µM (active),10.5 µM (inactive),0.0231 µM (active),0.00708 µM (active)
Cc1cc(O)cc(O)c1/N=N/c1ccc([N+](=O)[O-])cc1,16.1 µM (inactive),29.3 µM (inactive),17.9 µM (inactive),25 µM (inactive),30.5 µM (inactive),> 100 µM (inactive),16.7 µM (inactive),14.2 µM (inactive),27.5 µM (inactive),16.5 µM (inactive),3.48 µM (inactive),22.3 µM (inactive),19.4 µM (inactive),10.6 µM (inactive),> 100 µM (inactive),9.64 µM (inactive),5.69 µM (inactive),22.6 µM (inactive)
Cn1c(SCc2c[nH]c3ccccc23)nnc1-c1ccc(Cl)cc1Cl,17.4 µM (inactive),17.3 µM (inactive),21.2 µM (inactive),18 µM (inactive),14 µM (inactive),12.1 µM (inactive),15.1 µM (inactive),20 µM (inactive),19.7 µM (inactive),22.7 µM (inactive),12.7 µM (inactive),15.3 µM (inactive),12.5 µM (inactive),12.2 µM (inactive),6.1 µM (inactive),12.4 µM (inactive),12.8 µM (inactive),9.82 µM (inactive)
Cc1nc(C)c(C(=O)NNC(=O)c2ccccc2)cc1C(=O)NNC(=O)c1ccccc1,> 10 µM (inactive),> 100 µM (inactive),> 100 µM (inactive),> 100 µM (inactive),> 100 µM (inactive),> 100 µM (inactive),> 100 µM (inactive),> 100 µM (inactive),> 100 µM (inactive),> 100 µM (inactive),> 100 µM (inactive),> 10 µM (inactive),> 100 µM (inactive),> 100 µM (inactive),> 100 µM (inactive),> 100 µM (inactive),> 100 µM (inactive),> 10 µM (inactive)
CN1CCOC1(C)CO (stereo not given),> 100 µM (inactive),> 100 µM (inactive),> 100 µM (inactive),> 100 µM (inactive),> 100 µM (inactive),> 100 µM (inactive),> 100 µM (inactive),> 100 µM (inactive),> 100 µM (inactive),> 100 µM (inactive),> 100 µM (inactive),> 100 µM (inactive),> 100 µM (inactive),> 100 µM (inactive),> 100 µM (inactive),> 100 µM (inactive),> 100 µM (inactive),> 100 µM (inactive)
CCCC1CCC(=C2C(=O)CCC2=O)O1 (stereo not given),> 100 µM (inactive),> 100 µM (inactive),> 100 µM (inactive),> 100 µM (inactive),> 100 µM (inactive),> 100 µM (inactive),> 100 µM (inactive),> 100 µM (inactive),> 100 µM (inactive),> 100 µM (inactive),> 100 µM (inactive),> 100 µM (inactive),> 100 µM (inactive),> 100 µM (inactive),> 100 µM (inactive),> 100 µM (inactive),> 100 µM (inactive),> 100 µM (inactive)
CN(CCCCCl)P(=O)(OCc1ccc([N+](=O)[O-])o1)OC[C@H]1O[C@@H](n2cc(F)c(=O)[nH]c2=O)C[C@@H]1O (stereo not given in full),1.58 µM (inactive),0.502 µM (active),0.352 µM (active),0.355 µM (active),< 0.01 µM (active),0.52 µM (active),1.63 µM (inactive),0.0693 µM (active),0.514 µM (active),< 0.0227 µM (active),3.77 µM (inactive),35.4 µM (inactive),< 0.01 µM (active),0.302 µM (active),0.145 µM (active),12.8 µM (inactive),0.173 µM (active),12.4 µM (inactive)
Oc1ccc2ccccc2c1Cc1c(O)ccc2ccccc12,4.04 µM (inactive),22.1 µM (inactive),15.6 µM (inactive),15 µM (inactive),17.9 µM (inactive),11.2 µM (inactive),15.4 µM (inactive),17.1 µM (inactive),14.2 µM (inactive),21.8 µM (inactive),10.7 µM (inactive),16.2 µM (inactive),26.5 µM (inactive),16 µM (inactive),16.4 µM (inactive),13.1 µM (inactive),19.3 µM (inactive),18.2 µM (inactive)
